Publication PMC11903455 (Frontiers in Pharmacology, 2025)
Where a name gives a salt, the structure may show the parent alone. Read-outs that look alike come from different tables or passages of the source.

What was measured:
[1] = system: rats with corticosterone-induced anxiety-like depression; test: Morris water maze test; assay type: in vivo, rat
Source text: Anxiety-like depression rat model is induced by chronic induction of corticosterone. Five-week-old SD male rats (8/cage) randomly received 0.45% soluble Corticosterone suspension in β-cyclodextrin. The number of rats in each group has been supplemented in part 1.2 of the manuscript method. Specifically described as “The rats were randomly divided into 7 groups, 8 rats in each group, a total of 56 rats. The number of groups were model group, blank control group, positive drug group, low, middle, and high dose of Crocin I group, and gardenia extract group respectively. The model was established by subcutaneous injection of corticosterone (20 mg⋅kg^−1) for 21 consecutive days. […] The control group and model group were given the same volume of normal saline. […]
(§1) After the model was established. […] Depression was assessed by the preference for sweet foods in healthy rats ([Tan et al., 2020]) Details were provided in the Additional file: SI 1.2-1.3.
The water maze round pool was divided into Ⅰ, Ⅱ, Ⅲ, and Ⅳ quadrants. […] The position was placed once along the Ⅰ, Ⅱ, Ⅲ, and Ⅳ quadrants respectively, and the time of finding the platform within 60 seconds was recorded. […] After 5 days, the platform was removed, the animals were put into the pool from the original platform, and the number of rats crossing the target quadrant within 60 seconds was recorded.

[2] = no reference given; cited from earlier work
[3] = system: noradrenaline (NA); test: ELISA of brain tissue: NA; assay type: in vivo, rat
Description: (§2) Anxiety-like depression rat model is induced by chronic induction of corticosterone. Five-week-old SD male rats (8/cage) randomly received 0.45% soluble Corticosterone suspension in β-cyclodextrin. The number of rats in each group has been supplemented in part 1.2 of the manuscript method. Specifically described as “The rats were randomly divided into 7 groups, 8 rats in each group, a total of 56 rats. […] The model was established by subcutaneous injection of corticosterone (20 mg⋅kg^−1) for 21 consecutive days. […] The control group and model group were given the same volume of normal saline. Solution preparation methods are described in Supplementary Material S1.1.
(§3) The contents of Serotonin transporter (5-HTT, JW.RA1057), dopamine (DA, JW.RA1621), γ-aminobutyric acid (GABA, JW.RA1389) and noradrenaline (NA, JW.RA2154) in the hippocampus were measured by ELISA kit. The tissue samples were added to PBS low-temperature homogenate according to 1:10, and the homogenate was centrifuged at 10,000 rpm at 4 °C […] for 10 min. The supernatant was taken to detect the content of the sample.

[4] = system: hippocampal neurons; test: Nissl staining of hippocampus (DG, CA1, CA3); assay type: in vivo, rat; conditions: for neuronal cell damage in the dentate gyrus region: after administration, corticosterone model rats; for number of Nissl bodies, hippocampal CA3: crocin I low, medium, high dose, positive drug 5 mg/kg; for number of Nissl bodies, hippocampal CA1: high dose crocin I (9 mg/kg), positive control drug 5 mg/kg
Source text: (§4) Anxiety-like depression rat model is induced by chronic induction of corticosterone. Five-week-old SD male rats (8/cage) randomly received 0.45% soluble Corticosterone suspension in β-cyclodextrin. The number of rats in each group has been supplemented in part 1.2 of the manuscript method. Specifically described as “The rats were randomly divided into 7 groups, 8 rats in each group, a total of 56 rats. The number of groups were model group, blank control group, positive drug group, low, middle, and high dose of Crocin I group, and gardenia extract group respectively. The model was established by subcutaneous injection of corticosterone (20 mg⋅kg^−1) for 21 consecutive days. […] The control group and model group were given the same volume of normal saline. Solution preparation methods are described in Supplementary Material S1.1.
(§5) The rats were deeply anesthetized with 2% sodium pentobarbital. After 15 min, the rats heart were perfused and fixed with normal saline and 4% paraformaldehyde, respectively. Then the brain tissues of rats in different groups were collected. The brain tissue was cryosectioned at a thickness of 3 μm, and then Nissl staining was performed to analyze the hippocampal region of interest. The staining process is detailed in Supplementary Material S1.4.
After the behavioral evaluation of the rats, the rats were anesthetized and decapitated to take the brain. The brain tissue was fixed with 4% paraformaldehyde for 24 hours. Rinse with normal saline to remove the residual fixative. Dehydration with 30% sucrose solution. It was embedded with an OTC embedding agent, and after it was completely frozen, the shape was trimmed and the sections were frozen. According to the localization map of rat brain sections, the target locations of the hippocampus and prefrontal cortex of rats were selected and sectioned continuously in the coronal plane with a thickness of 3 µm. Stick the slides with adhesive slides and bake the slides in an oven at 37 ℃ for half an hour. The slices were stained with methyl violet dye and rinsed with distilled water. Nissl Differentiation was used to differentiate for 5 s and most of the staining solution was removed. The slides were placed successively in different concentrations of ethanol and gradient dehydration (0%, 50%, 75%, and 95% ethanol, the section and background color should be observed under a microscope during dehydration). After dehydration, the sections were sealed with transparent and neutral gum in anhydrous ethanol Ⅰ, Ⅱ, anhydrous ethanol-xylene (1:1), xylene Ⅰ, and Ⅱ solution, respectively, and observed under a microscope.

[5] = system: γ-aminobutyric acid (GABA); test: ELISA of brain tissue: GABA; assay type: in vivo, rat
Description: as §2, §3

[6] = system: Caco-2 cells; conditions: no method or reference given; cited from earlier work
[7] = system: rats with corticosterone-induced anxiety-like depression; test: Sucrose (sugar water) preference test; assay type: in vivo, rat; conditions: corticosterone model rats; crocin I 2.25, 4.5, 9 mg/kg intragastric
Source text: as §4, §1
1% sucrose aqueous solution was used in the experiment. […] On the day of the test, two bottles containing the same volume of 1% sucrose solution and ordinary water were put into cages, weighed before and after drinking water, and the liquid consumption in the two bottles within 24 hours was calculated.

[8] = system: Serotonin transporter (5-HTT); test: ELISA of brain tissue: 5-HTT; assay type: in vivo, rat
Description: as §2, §3

[9] = system: dopamine (DA); test: ELISA of brain tissue: DA; assay type: in vivo, rat; conditions: for brain DA compared with the control group: crocin I high-dose group, positive drug group
Description: as §2, §3

[10] = system: cortical neurons; test: Nissl staining of prefrontal cortex; assay type: in vivo, rat; conditions: crocin I low, medium, high doses; Gardenia extract 0.9 g/kg; positive drug 5 mg/kg
Source text: as §4, §5
After the behavioral evaluation of the rats, the rats were anesthetized and decapitated to take the brain. […]

[11] = Stability of crocetin in plasma samples; assay type: in vitro ADME, rat; conditions: within one week at -20°C, n = 6
Description: The procedures for precision, stability, limit of quantitation, and sample recovery are described in the Supplementary Material S2.4 Methodological Investigations section.
Plasma samples were collected 30 minutes after administration (n=6). The stability of the samples was calculated within one week at -20°C.

[12] = Crocetin content of plasma sample by SERS and liquid phase determination; assay type: in vivo; conditions: SD, rat, oral, 4.5 mg kg^−1, 0.5 h medium-dose plasma
Description: The samples were analyzed by high performance liquid chromatography.
The treatment of plasma samples is described in Procedure 2.2.3. 50 uL of treated plasma was added into silver nanoparticle solution with an equal volume concentration of 10 mg/mL 50 uL mixed solution was placed on a round quartz sheet with a diameter of 1 cm, […] and the Raman spectrum was detected and recorded. Detection conditions: scanning time 3 s, laser power: 80 mW. Spectra are acquired by Optosky Raman microscopy software.
A standard curve was prepared based on the peak intensity of the characteristic peak at 1,532 cm^−1 and the content was determined, as shown in Figure 10C.

[13] = gardenia extract 0.9 g/kg, positive drug paroxetine hydrochloride 5 mg/kg

In the case of `CC(/C=C/C=C(\C)C(=O)O[C@@H]1O[C@H](CO[C@@H]2O[C@H](CO)[C@@H](O)[C@H](O)[C@H]2O)[C@@H](O)[C@H](O)[C@H]1O)=C\C=C\C=C(C)\C=C\C=C(/C)C(=O)O[C@@H]1O[C@H](CO[C@@H]2O[C@H](CO)[C@@H](O)[C@H](O)[C@H]2O)[C@@H](O)[C@H](O)[C@H]1O` [Crocin I, crocin I], the “improvement of spatial memory ability” value ([1]; crocin I 2.25, 4.5, 9 mg/kg) is listed as “dose-dependent”, the escape latency ([1]; crocin I low, middle and high dose groups (2.25, 4.5, 9 mg/kg)) is listed as “decreased” and the “oil-water partition coefficient (logP)” value [2] is listed as −1.03. The “NA expression level in brain tissue” value ([3]; High dose crocin I 9 mg/kg) was 5.60 ± 0.02 ng/mL, the “NA expression level in brain tissue” value ([3]; Low dose crocin I 2.25 mg/kg, control 3.78, model 8.08) was 5.99 ± 0.02 ng/mL and the “NA expression level in brain tissue” value ([3]; Medium dose crocin I 4.5 mg/kg) was 6.73 ± 0.18 ng/mL. For the same molecule, the “neuronal cell damage in the dentate gyrus region” value [4] was “significantly improved”, the “dentate gyrus morphology (angle/shape)” value ([4]; crocin I high dose 9 mg/kg) was “significant changes” and the “dentate gyrus morphology (angle/shape)” value ([4]; crocin I low dose 2.25 mg/kg) was “no significant change”. The “number of Nissl bodies, hippocampal CA3” value ([4]; gardenia extract 0.9 g/kg) was “increased in a dependent manner”, the “dentate gyrus morphology (angle/shape)” value ([4]; crocin I middle dose 4.5 mg/kg) was “significant changes” and the “number of Nissl bodies, hippocampal CA1” value ([4]; gardenia extract 0.9 g/kg) was “significantly increased”. For the same molecule, the “number of Nissl bodies, dentate gyrus” value ([4]; high-dose crocin I (9 mg/kg), gardenia extract 0.9 g/kg) was “increased significantly”, the “GABA expression level in brain tissue” value ([5]; High dose crocin I 9 mg/kg) was 6.83 ± 0.29 µmol/L and the “GABA expression level in brain tissue” value ([5]; Low dose crocin I 2.25 mg/kg, control 7.43, model 4.99) was 5.28 ± 0.21 µmol/L. The “GABA expression level in brain tissue” value ([5]; Medium dose crocin I 4.5 mg/kg) was 5.49 ± 0.29 µmol/L, the “GABA content compared with the model group” value ([5]; crocin I low-dose group) was “no significant difference” and the “apparent permeability coefficient Papp” value [6] was “low”. For the same molecule, the sugar water preference [7] was “dose-dependent”, the “5-HTT expression level in brain tissue” value ([8]; High dose crocin I 9 mg/kg) was 427.64 ± 7.00 ng/mL and the “5-HTT expression level in brain tissue” value ([8]; Low dose crocin I 2.25 mg/kg, control 238.58, model 573.69) was 374.76 ± 13.24 ng/mL. For the same molecule, the “5-HTT expression level in brain tissue” value ([8]; Medium dose crocin I 4.5 mg/kg) was 459.21 ± 5.21 ng/mL, the “content of 5-HTT compared with the model group” value ([8]; crocin I low-, medium-, high-dose, gardenia extract, positive drug, P < 0.001) was “significantly reduced” and the “DA expression level in brain tissue” value ([9]; High dose crocin I 9 mg/kg) was 80.22 ± 2.64 nmol/L. For the same molecule, the “DA expression level in brain tissue” value ([9]; Low dose crocin I 2.25 mg/kg, control 84.66, model 169.17) was 147.33 ± 3.72 nmol/L, the “DA expression level in brain tissue” value ([9]; Medium dose crocin I 4.5 mg/kg) was 137.22 ± 1.31 nmol/L and the “brain DA compared with the control group” value [9] was “no significant difference”. The “number of Nissl bodies, prefrontal cortex” value [10] was “increased”.

For `CC(/C=C/C=C(\C)C(=O)O)=C\C=C\C=C(C)\C=C\C=C(/C)C(=O)O` [crocetin], the “stability in plasma samples: Accuracy (RE, %)” value (shortened to “stability … (RE, %)”) ([11]; High dose plasma sample 837.96 ng/mL) was 99.64%, the “stability … (RE, %)” value ([11]; Low dose plasma sample 292.60 ng/mL) was 97.76% and the “stability … (RE, %)” value ([11]; Medium dose plasma sample 527.32 ng/mL) was 97.14%. The concentration at 0.5 h ([12]; AgNPs, peak 1,532 cm^-1, read-out: crocetin content in plasma by SERS) was 433 ng/mL, the concentration at 0.5 h ([12]; same sample, read-out: crocetin content in plasma by liquid phase determination) was 486 ng/mL and the “apparent permeability coefficient Papp” value [6] was “high”.

With `Fc1ccc([C@@H]2CCNC[C@H]2COc2ccc3c(c2)OCO3)cc1` [Positive, paroxetine hydrochloride, reference compound] the “NA expression level in brain tissue” value [3, 13] was 4.64 ± 0.09 ng/mL, the “neuronal cell damage in the dentate gyrus region” value [4] was “significantly improved” and the “number of Nissl bodies, hippocampal CA3” value ([4]; gardenia extract 0.9 g/kg) was “no significant increase”. The “number of Nissl bodies, hippocampal CA1” value ([4]; gardenia extract 0.9 g/kg) was “significantly increased”, the “GABA expression level in brain tissue” value [5, 13] was 7.34 ± 0.30 µmol/L and the “brain DA compared with the control group” value [9] was “no significant difference”. The “DA expression level in brain tissue” value [9, 13] was 81.70 ± 1.94 nmol/L and the “number of Nissl bodies, prefrontal cortex” value [10] was “increase”.
